The record followed here is US20250136578A1 (Kolm Therapeutics Inc., priority 2023, published 2025).

For experiment [1], the target named is AR / CBP ternary complex (Homo sapiens, UniProt P10275+Q92793). The experiment can be described thus: Ternary complex formation assay (sandwich ELISA, AR capture, CBP antibody detection) in VCaP cell lysates. Type of experiment: cell-based. Particulars: treated 1.5 hours, rabbit CBP or p300 antibody detection, average, read-out: Average Ternary Complex. The procedure, abridged: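 Sandwich ELISA: plates were coated with anti-AR antibody (AR441) and given lysates of VCaP cells treated 1.5 h with bifunctional compound in charcoal-stripped serum. Co-captured CBP or p300 was probed with rabbit mAbs and HRP secondary. Chemifluorescent signal (ex 570/em 585) was read at 0, 5 and 15 min.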
Chain of AR / CBP ternary complex (P10275 whole entry): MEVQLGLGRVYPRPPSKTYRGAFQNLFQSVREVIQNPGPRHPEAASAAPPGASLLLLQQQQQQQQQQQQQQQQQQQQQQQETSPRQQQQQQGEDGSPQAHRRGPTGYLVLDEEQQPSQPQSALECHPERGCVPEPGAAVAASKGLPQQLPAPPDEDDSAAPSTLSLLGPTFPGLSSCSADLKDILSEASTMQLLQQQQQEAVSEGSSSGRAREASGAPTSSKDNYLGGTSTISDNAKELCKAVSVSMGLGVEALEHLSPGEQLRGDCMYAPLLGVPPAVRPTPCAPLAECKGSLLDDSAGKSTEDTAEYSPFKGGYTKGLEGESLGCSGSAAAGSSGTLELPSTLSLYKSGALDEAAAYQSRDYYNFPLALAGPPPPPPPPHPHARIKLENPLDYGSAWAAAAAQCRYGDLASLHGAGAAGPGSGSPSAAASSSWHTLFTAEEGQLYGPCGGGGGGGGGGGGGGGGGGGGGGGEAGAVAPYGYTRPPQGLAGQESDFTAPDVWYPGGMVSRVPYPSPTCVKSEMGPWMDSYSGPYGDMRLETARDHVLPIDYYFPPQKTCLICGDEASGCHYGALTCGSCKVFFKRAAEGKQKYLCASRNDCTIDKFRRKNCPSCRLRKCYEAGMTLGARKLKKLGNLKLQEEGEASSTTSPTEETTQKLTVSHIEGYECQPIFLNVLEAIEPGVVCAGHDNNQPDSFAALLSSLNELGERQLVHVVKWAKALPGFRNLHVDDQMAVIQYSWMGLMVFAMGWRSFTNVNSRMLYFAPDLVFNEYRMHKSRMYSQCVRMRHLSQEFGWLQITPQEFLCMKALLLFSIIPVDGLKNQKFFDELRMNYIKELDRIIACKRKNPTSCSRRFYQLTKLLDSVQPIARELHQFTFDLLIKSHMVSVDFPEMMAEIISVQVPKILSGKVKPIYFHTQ
Chain of AR / CBP ternary complex (Q92793 2-2442): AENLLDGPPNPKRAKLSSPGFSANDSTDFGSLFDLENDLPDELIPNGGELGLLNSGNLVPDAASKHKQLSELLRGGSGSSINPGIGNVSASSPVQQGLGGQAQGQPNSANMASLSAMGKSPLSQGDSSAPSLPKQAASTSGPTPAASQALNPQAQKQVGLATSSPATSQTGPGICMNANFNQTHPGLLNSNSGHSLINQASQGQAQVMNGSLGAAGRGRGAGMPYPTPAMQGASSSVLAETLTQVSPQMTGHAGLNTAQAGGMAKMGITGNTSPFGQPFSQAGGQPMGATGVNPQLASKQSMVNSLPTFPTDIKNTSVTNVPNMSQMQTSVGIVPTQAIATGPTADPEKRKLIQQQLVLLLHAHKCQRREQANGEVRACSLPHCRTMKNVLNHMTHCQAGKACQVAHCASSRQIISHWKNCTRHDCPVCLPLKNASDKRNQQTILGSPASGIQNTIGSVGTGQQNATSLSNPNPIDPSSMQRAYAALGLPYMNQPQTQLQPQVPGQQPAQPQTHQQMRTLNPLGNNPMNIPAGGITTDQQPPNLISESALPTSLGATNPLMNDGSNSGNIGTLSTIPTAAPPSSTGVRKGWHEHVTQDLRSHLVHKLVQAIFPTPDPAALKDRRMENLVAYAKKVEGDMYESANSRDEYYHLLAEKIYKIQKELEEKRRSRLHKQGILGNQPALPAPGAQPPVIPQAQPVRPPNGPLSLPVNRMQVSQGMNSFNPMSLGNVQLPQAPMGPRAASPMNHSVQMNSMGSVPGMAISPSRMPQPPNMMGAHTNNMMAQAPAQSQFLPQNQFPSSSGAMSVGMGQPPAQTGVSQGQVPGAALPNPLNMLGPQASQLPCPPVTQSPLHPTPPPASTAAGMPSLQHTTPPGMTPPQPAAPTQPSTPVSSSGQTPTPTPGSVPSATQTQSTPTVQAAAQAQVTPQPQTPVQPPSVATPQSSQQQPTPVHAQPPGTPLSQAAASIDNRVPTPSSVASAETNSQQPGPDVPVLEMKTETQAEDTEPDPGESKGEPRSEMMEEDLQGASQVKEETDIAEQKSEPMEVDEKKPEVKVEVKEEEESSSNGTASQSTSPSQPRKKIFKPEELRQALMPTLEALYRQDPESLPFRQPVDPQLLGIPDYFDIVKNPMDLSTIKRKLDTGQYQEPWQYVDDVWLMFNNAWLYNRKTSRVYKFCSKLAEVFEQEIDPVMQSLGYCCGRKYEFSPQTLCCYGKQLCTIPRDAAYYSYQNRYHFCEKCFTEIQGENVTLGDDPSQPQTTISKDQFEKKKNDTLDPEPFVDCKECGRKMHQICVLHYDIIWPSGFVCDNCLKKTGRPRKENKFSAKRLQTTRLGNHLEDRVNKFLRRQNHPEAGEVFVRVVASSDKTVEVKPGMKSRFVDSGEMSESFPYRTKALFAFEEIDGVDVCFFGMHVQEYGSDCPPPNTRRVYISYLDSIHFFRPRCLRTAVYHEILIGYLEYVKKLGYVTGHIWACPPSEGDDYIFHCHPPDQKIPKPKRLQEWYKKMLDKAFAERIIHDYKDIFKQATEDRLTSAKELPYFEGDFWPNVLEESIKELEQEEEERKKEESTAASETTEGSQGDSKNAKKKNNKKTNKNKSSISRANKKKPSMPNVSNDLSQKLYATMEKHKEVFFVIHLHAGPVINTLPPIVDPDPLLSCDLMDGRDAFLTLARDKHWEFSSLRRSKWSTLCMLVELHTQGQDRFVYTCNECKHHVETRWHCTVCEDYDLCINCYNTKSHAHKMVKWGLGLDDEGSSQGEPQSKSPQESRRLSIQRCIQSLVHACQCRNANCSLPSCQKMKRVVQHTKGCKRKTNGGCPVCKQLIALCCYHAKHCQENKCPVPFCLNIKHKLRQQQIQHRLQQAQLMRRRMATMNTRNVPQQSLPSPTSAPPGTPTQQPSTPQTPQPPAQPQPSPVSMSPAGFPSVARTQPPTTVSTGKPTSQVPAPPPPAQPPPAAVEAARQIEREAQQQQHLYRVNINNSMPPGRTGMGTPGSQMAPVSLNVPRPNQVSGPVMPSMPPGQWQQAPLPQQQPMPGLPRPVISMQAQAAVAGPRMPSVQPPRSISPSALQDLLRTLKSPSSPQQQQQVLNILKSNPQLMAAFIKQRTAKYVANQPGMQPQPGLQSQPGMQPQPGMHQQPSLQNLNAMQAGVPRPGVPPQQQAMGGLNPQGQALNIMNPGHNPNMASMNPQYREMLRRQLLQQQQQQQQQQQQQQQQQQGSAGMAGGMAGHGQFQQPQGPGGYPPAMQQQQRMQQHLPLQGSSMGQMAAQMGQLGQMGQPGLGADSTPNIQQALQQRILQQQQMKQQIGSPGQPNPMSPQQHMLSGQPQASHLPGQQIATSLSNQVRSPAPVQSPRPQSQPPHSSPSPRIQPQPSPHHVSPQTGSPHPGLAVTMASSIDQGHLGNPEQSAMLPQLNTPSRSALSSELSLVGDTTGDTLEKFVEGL
For orientation: In an ELISA, binding on a coated surface is turned into a signal by an enzyme label.

Experiment [2] has as its system VCaP cells. Description: VCaP growth inhibition assay (CTG). Format: cell-based. Particulars: Homo sapiens, 216 h, 30 pM R1881, 9 days. The method in brief:
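Growth was measured by CTG luminescence after a 9-day exposure of VCaP cells to compound (final 10 fM–100 nM, fivefold steps) in the presence of 30 pM final R1881, in phenol red-free DMEM/5% CSS. IC50 values were derived by nonlinear 4-parameter regression of RLU against concentration.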

pEC50, pIC50: −log10 of the molar value. Bounds are passed on as bounds.

For `CC(=O)N1CCc2c(c(N3CCCc4cc(-c5cnn(C)c5)c(C(F)F)cc43)nn2C2CCN(C3CC4(CCC(Oc5ccc(C(=O)N[C@H]6CC[C@H](Oc7ccc(C#N)c(Cl)c7)CC6)nn5)CC4)C3)CC2)C1` (some centres unmarked) [Compound 252, 6-[2-[4-[5-acetyl-3-[7-(difluoromethyl)-6-(1-methylpyrazol-4-yl)-3,4-dihydro-2H-quinolin-1-yl]-6,7-dihydro-4H-pyrazolo[4,3-c]pyridin-1-yl]-1-piperidyl]spiro[3.5]nonan-7-yl]oxy-N-[4-(3-chloro-4-cyano-phenoxy)cyclohexyl]pyridazine-3-carboxamide], the pEC50 in experiment [1] was more than 9.00. This compound gave a pIC50 in experiment [2] not below 10.00.
In the same order, the values of `CC(=O)N1CCc2c(c(N3CCCc4cc(-c5cscn5)c(C(F)F)cc43)nn2C2CCN(CC3CCN(c4ccc(C(=O)N[C@H]5CC[C@H](Oc6ccc(C#N)c(Cl)c6)CC5)nn4)CC3)CC2)C1` [Compound 253, 6-[4-[[4-[5-acetyl-3-[7-(difluoromethyl)-6-thiazol-4-yl-3,4-dihydro-2H-quinolin-1-yl]-6,7-dihydro-4H-pyrazolo[4,3-c]pyridin-1-yl]-1-piperidyl]methyl]-1-piperidyl]-N-[4-(3-chloro-4-cyano-phenoxy)cyclohexyl] pyridazine-3-carboxamide] are more than 9.00 and not below 10.00.
In the same order, the values of `CC(=O)N1CCc2c(c(N3CCCc4cc(-c5ccn(C)n5)c(C(F)F)cc43)nn2C2CCN(CC3CCN(c4ccc(C(=O)N[C@H]5CC[C@H](Oc6ccc(C#N)c(Cl)c6)CC5)nn4)CC3)CC2)C1` [Compound 254, 6-[4-[[4-[5-acetyl-3-[7-(difluoromethyl)-6-(1-methylpyrazol-3-yl)-3,4-dihydro-2H-quinolin-1-yl]-6,7-dihydro-4H-pyrazolo[4,3-c]pyridin-1-yl]-1-piperidyl]methyl]-1-piperidyl]-N-[4-(3-chloro-4-cyano-phenoxy)cyclohexyl]pyridazine-3-carboxamide] are more than 9.00 and not below 10.00.
As to `CC(=O)N1CCc2c(c(N3CCCc4cc(-c5nccs5)c(C(F)F)cc43)nn2C2CCN(CC3CCN(c4ccc(C(=O)N[C@H]5CC[C@H](Oc6ccc(C#N)c(Cl)c6)CC5)nn4)CC3)CC2)C1` [Compound 255, 6-[4-[[4-[5-acetyl-3-[7-(difluoromethyl)-6-thiazol-2-yl-3,4-dihydro-2H-quinolin-1-yl]-6,7-dihydro-4H-pyrazolo[4,3-c]pyridin-1-yl]-1-piperidyl]methyl]-1-piperidyl]-N-[4-(3-chloro-4-cyano-phenoxy)cyclohexyl]pyridazine-3-carboxamide], the pEC50 in experiment [1] is more than 9.00. For the same compound, the pIC50 in experiment [2] is 9.00 to 10.00.
Taken in the same sequence, the figures for `CC(=O)N1CCc2c(c(N3CCCc4cc(-c5ncco5)c(C(F)F)cc43)nn2C2CCN(CC3CCN(c4ccc(C(=O)N[C@H]5CC[C@H](Oc6ccc(C#N)c(Cl)c6)CC5)nn4)CC3)CC2)C1` [Compound 256, 6-[4-[[4-[5-acetyl-3-[7-(difluoromethyl)-6-oxazol-2-yl-3,4-dihydro-2H-quinolin-1-yl]-6,7-dihydro-4H-pyrazolo[4,3-c]pyridin-1-yl]-1-piperidyl]methyl]-1-piperidyl]-N-[4-(3-chloro-4-cyano-phenoxy)cyclohexyl] pyridazine-3-carboxamide] were more than 9.00 and 9.00 to 10.00.
In the same order, the values of `COC(=O)N1c2ccc3c(nc(Cc4ccccc4)n3[C@@H]3CCC[C@H](OCC4CCN(c5ccc(C(=O)N[C@H]6CC[C@H](Oc7ccc(C#N)c(Cl)c7)CC6)nn5)CC4)C3)c2CC[C@@H]1C` [Compound 257] are 8.00 to 9.00 and 9.00 to 10.00.
Taken in the same sequence, the figures for `CC(=O)N1CCc2c(c(N3CCCc4cc(-c5cnn(C)c5)c(C(F)F)cc43)nn2C2CCN([C@H]3CCCN(c4ccc(C(=O)N[C@H]5CC[C@H](Oc6ccc(C#N)c(Cl)c6)CC5)nn4)C3)CC2)C1` [Compound 258, 6-[(3S)-3-[4-[5-acetyl-3-[7-(difluoromethyl)-6-(1-methylpyrazol-4-yl)-3,4-dihydro-2H-quinolin-1-yl]-6,7-dihydro-4H-pyrazolo[4,3-c]pyridin-1-yl]-1-piperidyl]-1-piperidyl]-N-[4-(3-chloro-4-cyano-phenoxy)cyclohexyl]pyridazine-3-carboxamide] were 8.00 to 9.00 and 7.00 to 9.00.
For the compound `CC(=O)N1CCc2c(c(N3CCCc4cc(-c5cnn(C)c5)c(C(F)F)cc43)nn2C2CCN([C@@H]3CCCN(c4ccc(C(=O)N[C@H]5CC[C@H](Oc6ccc(C#N)c(Cl)c6)CC5)nn4)C3)CC2)C1` [Compound 259, 6-[(3R)-3-[4-[5-acetyl-3-[7-(difluoromethyl)-6-(1-methylpyrazol-4-yl)-3,4-dihydro-2H-quinolin-1-yl]-6,7-dihydro-4H-pyrazolo[4,3-c]pyridin-1-yl]-1-piperidyl]-1-piperidyl]-N-[4-(3-chloro-4-cyano-phenoxy)cyclohexyl]pyridazine-3-carboxamide], the pEC50 in experiment [1] is 8.00 to 9.00. Moreover, in experiment [2], the pIC50 is 7.00 to 9.00.
`CC(=O)N1CCc2c(c(N3CCCc4cc(-c5cscn5)c(C(F)F)cc43)nn2C2CCN([C@@H]3CCCN(c4ccc(C(=O)N[C@H]5CC[C@H](Oc6ccc(C#N)c(Cl)c6)CC5)nn4)C3)CC2)C1` [Compound 261, 6-[(3R)-3-[4-[5-acetyl-3-[7-(difluoromethyl)-6-thiazol-4-yl-3,4-dihydro-2H-quinolin-1-yl]-6,7-dihydro-4H-pyrazolo[4,3-c]pyridin-1-yl]-1-piperidyl]-1-piperidyl]-N-[4-(3-chloro-4-cyano-phenoxy)cyclohexyl]pyridazine-3-carboxamide]: in experiment [1], the pEC50 is 8.00 to 9.00. This compound gave a pIC50 in experiment [2] of 7.00 to 9.00.
In the same order, the values of `CC(=O)N1CCc2c(c(N3CCCc4cc(-c5cnn(C)c5)c(C(F)F)cc43)nn2[C@H]2CC[C@]3(CCN(C4CN(c5ccc(C(=O)N[C@H]6CC[C@H](Oc7ccc(C#N)c(Cl)c7)CC6)nn5)C4)C3)CC2)C1` [Compound 262, 6-[3-[8-[5-acetyl-3-[7-(difluoromethyl)-6-(1-methylpyrazol-4-yl)-3,4-dihydro-2H-quinolin-1-yl]-6,7-dihydro-4H-pyrazolo[4,3-c]pyridin-1-yl]-2-azaspiro[4.5]decan-2-yl]azetidin-1-yl]-N-[4-(3-chloro-4-cyano-phenoxy)cyclohexyl]pyridazine-3-carboxamide] are more than 9.00 and 9.00 to 10.00.
Taken in the same sequence, the figures for `CC(=O)N1CCc2c(c(N3CCCc4cc(-c5cnn(C)c5)c(C(F)F)cc43)nn2[C@H]2CC[C@@]3(CCN(C4CN(c5ccc(C(=O)N[C@H]6CC[C@H](Oc7ccc(C#N)c(Cl)c7)CC6)nn5)C4)C3)CC2)C1` [Compound 263, 6-[3-[8-[5-acetyl-3-[7-(difluoromethyl)-6-(1-methylpyrazol-4-yl)-3,4-dihydro-2H-quinolin-1-yl]-6,7-dihydro-4H-pyrazolo[4,3-c]pyridin-1-yl]-2-azaspiro[4.5]decan-2-yl]azetidin-1-yl]-N-[4-(3-chloro-4-cyano-phenoxy)cyclohexyl]pyridazine-3-carboxamide] were more than 9.00 and not below 10.00.
In the same order, the values of `CC(=O)N1CCc2c(c(N3CCCc4cc(-c5cnn(C)c5)c(C(F)F)cc43)nn2[C@H]2CC[C@@]3(CCCN(c4ccc(C(=O)N[C@H]5CC[C@H](Oc6ccc(C#N)c(Cl)c6)CC5)nn4)C3)CC2)C1` [Compound 267, 6-[9-[5-acetyl-3-[7-(difluoromethyl)-6-(1-methylpyrazol-4-yl)-3,4-dihydro-2H-quinolin-1-yl]-6,7-dihydro-4H-pyrazolo[4,3-c]pyridin-1-yl]-2-azaspiro[5.5]undecan-2-yl]-N-[4-(3-chloro-4-cyano-phenoxy)cyclohexyl]pyridazine-3-carboxamide] are more than 9.00 and 7.00 to 9.00.
For the compound `CC(=O)N1CCc2c(c(N3CCCc4cc(-c5cnn(C)c5)c(C(F)F)cc43)nn2[C@H]2CC[C@]3(CCCN(C4CN(c5ccc(C(=O)N[C@H]6CC[C@H](Oc7ccc(C#N)c(Cl)c7)CC6)nn5)C4)C3)CC2)C1` [Compound 268, 6-[3-[9-[5-acetyl-3-[7-(difluoromethyl)-6-(1-methylpyrazol-4-yl)-3,4-dihydro-2H-quinolin-1-yl]-6,7-dihydro-4Hpyrazolo[4,3-c]pyridin-1-yl]-2-azaspiro[5.5]undecan-2-yl]azetidin-1-yl]-N-[4-(3-chloro-4-cyanophenoxy)cyclohexyl]pyridazine-3-carboxamide], the pEC50 in experiment [1] is more than 9.00. This compound had a pIC50 in experiment [2] of 9.00 to 10.00.
In the same order, the values of `COC(=O)N1c2ccc3c(nc(Cc4ccccc4)n3[C@@H]3CCC[C@H](OCCN4CCN(c5ccc(C(=O)N[C@H]6CC[C@H](Oc7ccc(C#N)c(Cl)c7)CC6)nn5)CC4)C3)c2CC[C@@H]1C` [Compound 270, methyl (7S)-2-benzyl-3-[3-[2-[4-[6-[[4-(3-chloro-4-cyano-phenoxy)cyclohexyl]carbamoyl]pyridazin-3-yl]piperazin-1-yl]ethoxy]cyclohexyl]-7-methyl-8,9-dihydro-7H-imidazo[4,5-f]quinoline-6-carboxylate] are 8.00 to 9.00 and 7.00 to 9.00.
In the same order, the values of `CC(=O)N1CCc2c(c(-c3cccc4cc(-c5cnn(C)c5)ncc34)nn2C2CCN(CC3CCN(c4ccc(C(=O)N[C@H]5CC[C@H](Oc6ccc(C#N)c(Cl)c6)CC5)nn4)CC3(C)C)CC2)C1` (some centres unmarked) [Compound 280] are more than 9.00 and not below 10.00.
As for `CC(=O)N1CCc2c(c(N3CCCc4cc(-c5cnn(C)c5)c(C)cc43)nn2C2CCN(C[C@H]3[C@H](C)CN(c4ccc(C(=O)N[C@H]5CC[C@H](Oc6ccc(C#N)c(Cl)c6)CC5)nn4)C[C@@H]3C)CC2)C1` [Compound 281], the pEC50 in experiment [1] was more than 9.00. In experiment [2], the pIC50 was not below 10.00.

The pIC50 is −log10 of the IC50, conventionally taken in molar units. A high value points to a small IC50.
